Test results as given in US6335355B1, “Crop protection products” (Syngenta Investment Corporation, priority 1995, dated 2002).
Where two headings read alike, the source gives them in different places.

Assays:
[1] = test system: Colletotrichum lagenarium; assay: Action against Colletotrichum lagenarium on Cucumis sativus L./foliar application; assay type: in vivo
[2] = test system: Colletotrichum lagenarium; assay: Action against Colletotrichum lagenarium on Cucumis sativus L./soil application; assay type: in vivo
Erysiphe graminis = assay: Action against Erysiphe graminis on barley
Protocol: A1: Action gainst Erysiphe graminis on Barley
a) Residual-protective Action Barley plants about 8 cm in height are sprayed to drip point with an aqueous spray mixture (max. 0.02% active ingredient) and are dusted 3 to 4 days later with conidia of the fungus. The infected plants are stood in a greenhouse at 22°. Fungus infestation is generally evaluated 10 days after infection.
b) Systemic Action Barley plants about 8 cm in height are watered with an aqueous spray mixture (max. 0.002% active ingredient, based on the volume of the soil). […] The plants are dusted with conidia of the fungus 3 to 4 days later. The infected plants are stood in a greenhouse at 22°. Fungus infestation is generally evaluated 10 days after infection.

Cercospora nicotianae = assay: Action against Cercospora nicotianae on tobacco plants; assay type: in vivo
Pyricularia oryzae = assay type: in vivo; settings: Example B11
[3] = test system: Cercospora sp. (leaf spot); assay: Field test on chilli: action against Cercospora sp. (leaf spot)
Description: In a plot of land about 10 m^2 (test location: Cikampek, Java, Indonesia), chilli plants are sprayed a total of 7 times at intervals of about 7 days with 500-700 litres of spray mixture per hectare. Three days after the first spraying, the plants are infected artificially with the fungus.
Evaluation is made by assessing infestation on the leaves after the sixth spraying.

[4] = Field test on chilli: action on crop yield; assay type: in vivo; settings: Example B10, chillis harvested after the sixth spraying
[5] = Example B3(a), 0.06 mg a.i. per liter (ppm)
[6] = Example B3(a), 0.2 mg a.i. per liter (ppm)
[7] = Example B3(b), 0.2 mg a.i. per liter (ppm)
[8] = Example B1, 0.6 mg a.i. per liter (ppm)
[9] = Example B1, 2 mg a.i. per liter (ppm)
[10] = Example B1, 6 mg a.i. per liter (ppm)
[11] = Example B9(a), 6 mg a.i. per liter (ppm)
[12] = Example B9(b), 0.02 mg a.i. per liter (ppm)
[13] = Example B9(b), 0.06 mg a.i. per liter (ppm)
[14] = Example B5, 2 mg a.i. per liter (ppm)
[15] = Example B5, 6 mg a.i. per liter (ppm)
[16] = Example B7, 2 mg a.i. per liter (ppm)
[17] = Example B7, 6 mg a.i. per liter (ppm)

For O=C(O)c1cccc2nnsc12 [compound IA, benzothiadiazole-7-carboxylic acid], the “% action O (found)” value [1, 5] was 0%, the “% action O (found)” value [1, 6] was 5% and the “% action O (found)” value ([1]; Example B3(a), 2 mg a.i. per liter (ppm)) was 22%. The “% action O (found)” value ([1]; Example B4, 0.2 mg a.i. per liter (ppm)) was 3%, the “% action O (found)” value ([1]; Example B4, 0.6 mg a.i. per liter (ppm)) was 51% and the “% action O (found)” value ([2]; Example B3(b), 0.006 mg a.i. per liter (ppm)) was 0%. For the same compound, the “% action O (found)” value ([2]; Example B3(b), 0.02 mg a.i. per liter (ppm)) was 40%, the “% action O (found)” value ([2]; Example B3(b), 0.06 mg a.i. per liter (ppm)) was 49% and the “% action O (found)” value [2, 7] was 91%. For the same compound, the “% action O (found)” value (Erysiphe graminis; [8]) was 0%, the “% action O (found)” value (Erysiphe graminis; [9]) was 40% and the “% action O (found)” value (Erysiphe graminis; [10]) was 89%. For the same compound, the “% action O (found)” value (Erysiphe graminis; Example B2, 0.6 mg a.i. per liter (ppm)) was 14% and the “% action O (found)” value (Erysiphe graminis; Example B2, 2 mg a.i. per liter (ppm)) was 27%.
For CSC(=O)c1cccc2nnsc12 [compound ID, benzothiadiazole-7-carboxylic acid thiomethyl ester], the “% action O (found)” value ([1]; Example B9(a), 0.06 mg a.i. per liter (ppm)) was 16%, the “% action O (found)” value ([1]; Example B9(a), 0.2 mg a.i. per liter (ppm)) was 22% and the “% action O (found)” value [1, 11] was 60%. The “% action O (found)” value ([2]; Example B9(b), 0.006 mg a.i. per liter (ppm)) was 0%, the “% action O (found)” value [2, 12] was 6% and the “% action O (found)” value [2, 13] was 23%. The “% action O (found)” value ([2]; Example B9(b), 0.2 mg a.i. per liter (ppm)) was 36%, the “% action O (found)” value (Cercospora nicotianae; Example B5, 0.2 mg a.i. per liter (ppm)) was 0% and the “% action O (found)” value (Cercospora nicotianae; [14]) was 17%. The “% action O (found)” value (Cercospora nicotianae; [15]) was 55%, the “% action O (found)” value (Cercospora nicotianae; Example B5, 20 mg a.i. per liter (ppm)) was 78% and the “% action O (found)” value (Cercospora nicotianae; Example B7, 0.2 mg a.i. per liter (ppm)) was 0%. For the same compound, the “% action O (found)” value (Cercospora nicotianae; [16]) was 17%, the “% action O (found)” value (Cercospora nicotianae; [17]) was 55% and the “% action O (found)” value (Cercospora nicotianae; Example B7, 20 mg a.i. per liter (ppm)) was 78%. The “% action O (found)” value (Erysiphe graminis; Example B8, 0.6 mg a.i. per liter (ppm)) was 0%, the “% action O (found)” value (Erysiphe graminis; Example B8, 2 mg a.i. per liter (ppm)) was 33% and the “% action O (found)” value (Pyricularia oryzae; 6 mg a.i. per liter (ppm)) was 15%. The “% action O (found)” value ([3]; Example B10, 5 mg a.i. per liter (ppm)) was 76% and the “Action on crop yield, % action O (found)” value ([4]; 5 mg a.i. per liter (ppm)) was 459%.
For CC(C)(C)C(O)(CCc1ccc(Cl)cc1)Cn1cncn1 (stereo not drawn) [compound IIA, α-[2-(4-chlorophenyl)ethyl]-α-(1,1-dimethylethyl)-1H-1,2,4-trazole-1-ethanol], the “% action O (found)” value (Cercospora nicotianae; [14]) was 0% and the “% action O (found)” value (Cercospora nicotianae; [15]) was 0%.
With CC(C1CC1)C(O)(Cn1cncn1)c1ccc(Cl)cc1 (stereo not drawn) [compound IIC, α-(4-chlorophenyl)-α-(1-cyclopropylethyl)-1H-1,2,4-triazole-1-ethanol] the “% action O (found)” value (Cercospora nicotianae; [16]) was 0%, the “% action O (found)” value (Cercospora nicotianae; [17]) was 0% and the “% action O (found)” value (Erysiphe graminis; Example B8, 6 mg a.i. per liter (ppm)) was 17%. The “% action O (found)” value (Erysiphe graminis; Example B8, 20 mg a.i. per liter (ppm)) was 33% and the “% action O (found)” value (Erysiphe graminis; Example B8, 60 mg a.i. per liter (ppm)) was 50%.
With CC1(C)CCC(Cc2ccc(Cl)cc2)C1(O)Cn1cncn1 (stereo not shown) [compound IID, 5-(4-chlorobenzyl)-2,2-dimethyl-1-(1H-1,2,4-triazol-1-ylmethyl)-cyclopentanol] the “% action O (found)” value (Erysiphe graminis; [8]) was 10%, the “% action O (found)” value (Erysiphe graminis; [9]) was 40% and the “% action O (found)” value (Erysiphe graminis; [10]) was 51%. For the same compound, the “% action O (found)” value (Erysiphe graminis; Example B1, 20 mg a.i. per liter (ppm)) was 65%.
With CO/C=C(/C(=O)OC)c1ccccc1Oc1cc(Oc2ccccc2C#N)ncn1 [compound IIF, methyl-(E)-2-{2-[6-(2-cyanophenoxy)pyrimidin4-yloxy]phenyl}-3-methoxyacrylate] the “% action O (found)” value [1, 5] was 5%, the “% action O (found)” value [1, 6] was 9% and the “% action O (found)” value ([1]; Example B3(a), 0.6 mg a.i. per liter (ppm)) was 12%. The “% action O (found)” value ([1]; Example B3(a), 6 mg a.i. per liter (ppm)) was 17%, the “% action O (found)” value ([1]; Example B9(a), 2 mg a.i. per liter (ppm)) was 18% and the “% action O (found)” value [1, 11] was 75%. For the same compound, the “% action O (found)” value [2, 7] was 0%, the “% action O (found)” value ([2]; Example B3(b), 0.6 mg a.i. per liter (ppm)) was 9% and the “% action O (found)” value ([2]; Example B3(b), 2 mg a.i. per liter (ppm)) was 28%. The “% action O (found)” value ([2]; Example B3(b), 6 mg a.i. per liter (ppm)) was 66%, the “% action O (found)” value [2, 12] was 1% and the “% action O (found)” value [2, 13] was 5%. For the same compound, the “% action O (found)” value ([2]; Example B9(b), 0.6 mg a.i. per liter (ppm)) was 27%, the “% action O (found)” value ([2]; Example B9(b), 2 mg a.i. per liter (ppm)) was 61% and the “% action O (found)” value ([2]; Example B9(b), 6 mg a.i. per liter (ppm)) was 93%.
With CO/N=C(/C(=O)OC)c1ccccc1COc1ccccc1C [compound IIG, methyl-(E)-2-methoximino-2-[α-(o-tolyloxy)-o-tolyl]acetate] the “% action O (found)” value ([1]; Example B4, 2 mg a.i. per liter (ppm)) was 0% and the “% action O (found)” value ([1]; Example B4, 20 mg a.i. per liter (ppm)) was 41%.
With CCC1(C(=O)NC(C)c2ccc(Cl)cc2)C(C)C1(Cl)Cl [compound IIK, (1R,3S/1S,3R)-2,2-dichloro-N-[(R)-1-(4-chlorophenyl)ethyl]-1-ethyl-3-methylcyclo-propanecarboxamide] the “% action O (found)” value (Pyricularia oryzae; 0.02 mg a.i. per liter (ppm)) was 0%, the “% action O (found)” value (Pyricularia oryzae; 0.06 mg a.i. per liter (ppm)) was 28% and the “% action O (found)” value (Pyricularia oryzae; 0.2 mg a.i. per liter (ppm)) was 47%. The “% action O (found)” value (Pyricularia oryzae; 0.6 mg a.i. per liter (ppm)) was 79%, the “% action O (found)” value (Pyricularia oryzae; 2 mg a.i. per liter (ppm)) was 83% and the “% action O (found)” value (Pyricularia oryzae; 6 mg a.i. per liter (ppm)) was 91%.
With “manganese ethylenebis (dithiocarbamate) polymer-zinc complex [compound IIL]” the “% action O (found)” value ([3]; Example B10, 100 mg a.i. per liter (ppm)) was 8% and the “Action on crop yield, % action O (found)” value ([4]; 100 mg a.i. per liter (ppm)) was 8%.
